Test results: US20240360177A1, “PEPTIDES WITH ANTIMICROBIAL ACTIVITIES” (priority 2021, published 2024)
Values after ≈ are worked out from the molar mass of the structure shown. Read-outs that look alike come from different tables or passages of the source. Non-standard residues stand in square brackets, D forms with d. Residues, ends and D or L forms follow the SMILES beside them. 4Pal = N[C@@H](Cc1ccncc1)C(=O)O; αMeL = CC(C)C[C@](C)(N)C(=O)O; NBuGly = CCCCNCC(=O)O; Ava = NCCCCC(=O)O

CCCCN(CC(=O)N[C@H](CCCNC(=N)N)C(=O)N[C@@H](CCCNC(=N)N)C(=O)N[C@H](CCCNC(=N)N)C(=O)N[C@@H](CCCNC(=N)N)C(N)=O)C(=O)[C@H](CCCNC(=N)N)NC(=O)[C@@H](CCCNC(=N)N)NC(=O)[C@H](CCCNC(=N)N)NC(=O)[C@@H](CCCNC(=N)N)NC(=O)CN(CCCC)C(=O)[C@@H](CCCNC(=N)N)NC(=O)[C@H](CCCNC(=N)N)NC(=O)[C@@H](CCCNC(=N)N)NC(=O)CN(CCCC)C(=O)[C@@H](CCCNC(=N)N)NC(=O)[C@H](CCCNC(=N)N)NC(=O)[C@H](N)CCCNC(=N)N [SEQ ID NO: 35, rRr-(ButylGly)-rRr-(ButylGly)-rRrR-(ButylGly)-rRrR-NH2] (H-[dR]R[dR][NBuGly][dR]R[dR][NBuGly][dR]R[dR]R[NBuGly][dR]R[dR]R-NH2)
MIC C. auris (C. auris; 24 h): 0.5 µg/mL (≈ 0.197 µM)
MIC C. dubliniensis (C. dubliniensis; 24 h): 0.5 µg/mL (≈ 0.197 µM)
MIC C. glabrata (C. glabrata; 24 h): 0.5 µg/mL (≈ 0.197 µM)
MIC C. tropicalis (C. tropicalis; 24 h): 0.5 µg/mL (≈ 0.197 µM)
MIC C. krusei (C. krusei; 24 h): 0.5 µg/mL (≈ 0.197 µM)
MIC C. parapsilosis (C. parapsilosis; 24 h): 0.25 µg/mL (≈ 0.0983 µM)
MIC C. albicans (C. albicans; 24 h): 0.5 µg/mL (≈ 0.197 µM)

CC(C)C[C@](C)(NC(=O)[C@H](CCCNC(=N)N)NC(=O)[C@@H](CCCNC(=N)N)NC(=O)[C@H](CCCNC(=N)N)NC(=O)[C@@H](CCCNC(=N)N)NC(=O)[C@](C)(CC(C)C)NC(=O)[C@@H](CCCNC(=N)N)NC(=O)[C@H](CCCNC(=N)N)NC(=O)[C@@H](CCCNC(=N)N)NC(=O)[C@](C)(CC(C)C)NC(=O)[C@@H](CCCNC(=N)N)NC(=O)[C@H](CCCNC(=N)N)NC(=O)[C@H](N)CCCNC(=N)N)C(=O)N[C@H](CCCNC(=N)N)C(=O)N[C@@H](CCCNC(=N)N)C(=O)N[C@H](CCCNC(=N)N)C(=O)N[C@@H](CCCNC(=N)N)C(N)=O [SEQ ID NO: 37, rRr-Leu(Me)-rRr-Leu(Me)-rRrR-Leu(Me)-rRrR-NH2] (H-[dR]R[dR][αMeL][dR]R[dR][αMeL][dR]R[dR]R[αMeL][dR]R[dR]R-NH2)
MIC C. auris (C. auris; 24 h): 1 µg/mL (≈ 0.387 µM)
MIC C. dubliniensis (C. dubliniensis; 24 h): 0.5 µg/mL (≈ 0.193 µM)
MIC C. glabrata (C. glabrata; 24 h): 0.5 µg/mL (≈ 0.193 µM)
MIC C. tropicalis (C. tropicalis; 24 h): 0.5 µg/mL (≈ 0.193 µM)
MIC C. krusei (C. krusei; 24 h): 1 µg/mL (≈ 0.387 µM)
MIC C. parapsilosis (C. parapsilosis; 24 h): 0.5 µg/mL (≈ 0.193 µM)
MIC C. albicans (C. albicans; 24 h): 0.5 µg/mL (≈ 0.193 µM)

N=C(N)NCCC[C@@H](N)C(=O)N[C@@H](CCCNC(=N)N)C(=O)N[C@H](CCCNC(=N)N)C(=O)NCCNCC(=O)N[C@H](CCCNC(=N)N)C(=O)N[C@@H](CCCNC(=N)N)C(=O)N[C@H](CCCNC(=N)N)C(=O)NCCNCC(=O)N[C@H](CCCNC(=N)N)C(=O)N[C@@H](CCCNC(=N)N)C(=O)N[C@H](CCCNC(=N)N)C(=O)N[C@@H](CCCNC(=N)N)C(=O)NCCNCC(=O)N[C@H](CCCNC(=N)N)C(=O)N[C@@H](CCCNC(=N)N)C(=O)N[C@H](CCCNC(=N)N)C(=O)N[C@@H](CCCNC(=N)N)C(N)=O [SEQ ID NO: 46, rRr-(Aeg)-rRr-(Aeg)-rRrR-(Aeg)-rRrR-NH2]
MIC C. auris (C. auris; 24 h): 8 µg/mL (≈ 3.19 µM)
MIC C. dubliniensis (C. dubliniensis; 24 h): 0.5 µg/mL (≈ 0.2 µM)
MIC C. glabrata (C. glabrata; 24 h): 1 µg/mL (≈ 0.399 µM)
MIC C. tropicalis (C. tropicalis; 24 h): 0.5 µg/mL (≈ 0.2 µM)
MIC C. krusei (C. krusei; 24 h): 0.5 µg/mL (≈ 0.2 µM)
MIC C. parapsilosis (C. parapsilosis; 24 h): 0.25 µg/mL (≈ 0.0998 µM)
MIC C. albicans (C. albicans; 24 h): 0.5 µg/mL (≈ 0.2 µM)

N=C(N)NCCC[C@@H](N)C(=O)N[C@@H](CCCNC(=N)N)C(=O)N[C@H](CCCNC(=N)N)C(=O)N[C@@H](Cc1ccncc1)C(=O)N[C@H](CCCNC(=N)N)C(=O)N[C@@H](CCCNC(=N)N)C(=O)N[C@H](CCCNC(=N)N)C(=O)N[C@@H](Cc1ccncc1)C(=O)N[C@H](CCCNC(=N)N)C(=O)N[C@@H](CCCNC(=N)N)C(=O)N[C@H](CCCNC(=N)N)C(=O)N[C@@H](CCCNC(=N)N)C(=O)N[C@@H](Cc1ccncc1)C(=O)N[C@H](CCCNC(=N)N)C(=O)N[C@@H](CCCNC(=N)N)C(=O)N[C@H](CCCNC(=N)N)C(=O)N[C@@H](CCCNC(=N)N)C(N)=O [SEQ ID NO: 77, rRr-(4-PyrAla)-rRr-(4-PyrAla)-rRrR-(4-PyrAla)-rRrR-NH2] (H-[dR]R[dR][4Pal][dR]R[dR][4Pal][dR]R[dR]R[4Pal][dR]R[dR]R-NH2)
MIC C. auris (C. auris; 24 h): 0.5 µg/mL (≈ 0.189 µM)
MIC C. dubliniensis (C. dubliniensis; 24 h): 0.5 µg/mL (≈ 0.189 µM)
MIC C. glabrata (C. glabrata; 24 h): 0.5 µg/mL (≈ 0.189 µM)
MIC C. tropicalis (C. tropicalis; 24 h): 0.5 µg/mL (≈ 0.189 µM)
MIC C. krusei (C. krusei; 24 h): 0.5 µg/mL (≈ 0.189 µM)
MIC C. parapsilosis (C. parapsilosis; 24 h): 0.25 µg/mL (≈ 0.0944 µM)
MIC C. albicans (C. albicans; 24 h): 0.5 µg/mL (≈ 0.189 µM)

N=C(N)NCCC[C@@H](N)C(=O)N[C@@H](CCCNC(=N)N)C(=O)N[C@H](CCCNC(=N)N)C(=O)NCCCCC(=O)N[C@H](CCCNC(=N)N)C(=O)N[C@@H](CCCNC(=N)N)C(=O)N[C@H](CCCNC(=N)N)C(=O)NCCCCC(=O)N[C@H](CCCNC(=N)N)C(=O)N[C@@H](CCCNC(=N)N)C(=O)N[C@H](CCCNC(=N)N)C(=O)N[C@@H](CCCNC(=N)N)C(=O)NCCCCC(=O)N[C@H](CCCNC(=N)N)C(=O)N[C@@H](CCCNC(=N)N)C(=O)N[C@H](CCCNC(=N)N)C(=O)N[C@@H](CCCNC(=N)N)C(=O)N[C@@H](CCC(=O)O)C(=O)O [SEQ ID NO: 20, rRr-(Ava)-rRr-(Ava)-rRrR-(Ava)-rRrR-Glu] (H-[dR]R[dR][Ava][dR]R[dR][Ava][dR]R[dR]R[Ava][dR]R[dR]RE-OH)
MIC C. auris (C. auris; CDC 386, 24 hrs): 16 µg/mL (≈ 6.08 µM)
MIC C. dubliniensis (C. dubliniensis; ATCC MYA-578, 24 hrs): 0.5 µg/mL (≈ 0.19 µM)
MIC C. glabrata (C. glabrata; ATCC 90030, 24 hrs): 1 µg/mL (≈ 0.38 µM)
MIC C. tropicalis (C. tropicalis; ATCC 90874, 24 hrs): 0.5 µg/mL (≈ 0.19 µM)
MIC C. krusei (C. krusei; MMX 7135, 24 hrs): 2 µg/mL (≈ 0.76 µM)
MIC C. parapsilosis (C. parapsilosis; ATCC 22019, 24 hrs): 0.25 µg/mL (≈ 0.095 µM)
MIC C. albicans (C. albicans; ATCC 90028 or 90029, 24 hrs): 0.5 µg/mL (≈ 0.19 µM)
